Reference: article PMC4858447 (ACS chemical biology, 2015)
Read-outs that look alike come from different tables or passages of the source.

Columns and labels:
5FW-BPTF bromodomain = 5FW-BPTF bromodomain (Homo sapiens, UniProt Q12830); assay: Protein-observed 19F NMR; format: binding; settings: for BPTF 19F NMR: 100 μM compound, 50 μM Brd4 and BPTF, 1% DMSO; for selectivity between BPTF and Brd4 by PrOF NMR (in words): dual screen
[1] = target: 5FW-Brd4 (first bromodomain of Brd4) (Homo sapiens, UniProt O60885); assay: Protein-observed 19F NMR; format: binding; settings: for Brd4 19F NMR: 100 μM compound, 50 μM Brd4 and BPTF, 1% DMSO; for binding to Brd4 (in words): PrOF NMR
Brd4 [2] = target: T1, Brd4 (Homo sapiens, UniProt O60885); assay: Differential scanning fluorimetry; format: binding; settings: DSF, 100 μM inhibitor, 4 μM Brd4
Brd4 [3] = target: T1, Brd4; assay: Fluorescence anisotropy competition against bound BODIPY-BI2536; format: binding
Cell viability assay = format: cell-based, human; settings: human, HEK 293T cells
HEK 293T cells = assay: Cell viability assay; format: cell-based, human; settings: 24 hours at 3 and 10 μM
[4] = tested on: BPTF-regulatory region upstream of Mobkl3 promoter in Eph4 cells; assay: pGL3_Mobkl3p luciferase reporter assay; format: cell-based, mouse; settings: 5 μM for 12 hours, pGL3_Mobkl3p vector
[5] = read-out: EC50 in five cellular assays; ChEMBL search; targets unknown; cited from earlier work
hepatocytes = settings: 10 μM compound; cited from earlier work

BPTF 19F NMR (5FW-BPTF bromodomain) | selectivity between BPTF and Brd4 by PrOF NMR (in words) (5FW-BPTF bromodomain) | Brd4 19F NMR [1] | SMILES | also measured
+++ |  | +++ | CCn1c(-c2nonc2N)nc2c(-c3ccccc3)ncc(OCCCN)c21 [GSK260205A] | 
- |  | +++ | CN(C)CCOc1ccc(-c2nc(-c3ccncc3)c(-c3ccc4c(c3)CC/C4=N\O)[nH]2)cc1 [SB-590885-AAE] | Brd4 ΔTm (Brd4 [2]): 5.1 ± 0.4 °C; Ki (Brd4 [3]; read-out: Brd4 FP Ki, competition with BODIPY-BI2536, 156 nM Brd4): 400 ± 230 nM
+++ |  | +++ | COC(=O)c1cccc(NC(=O)NC2CCN(c3ccnc(Nc4cc(OC)c(OC)c(OC)c4)n3)C2)c1 (stereo not drawn) [GSK1379767A] | 
 |  |  | O=C(Nc1ccc2c(c1)OCO2)NC1CCN(c2ccnc(Nc3ccc(F)cc3)n2)C1 (stereo not drawn) [GSK1379724A] | binding to BPTF (in words) (5FW-BPTF bromodomain; PrOF NMR): unable to bind; binding to Brd4 (in words) [1]: unable to bind
+++ |  | - | COC(=O)c1cccc(NC(=O)NC2CCN(c3ccnc(Nc4ccc(F)cc4)n3)C2)c1 (stereo not drawn) [AU1] | binding to Brd4 (in words) [1]: No binding is detected; viability at 48 h, 10 µM (Cell viability assay): 76%; cellular toxicity against HEK 293T cells (HEK 293T cells): no cellular toxicity; loss of luciferase activity [4]: ~ 4 fold; EC50 [5]: 500 nM; cellular toxicity in hepatocytes (hepatocytes): did not detect cellular toxicity
+++ | completely selective for BPTF over Brd4 | - | COC(=O)c1cccc(NC(=O)NC2CCN(c3ccnc(Nc4ccc(OC)cc4)n3)C2)c1 (stereo not drawn) [GSK1379746A] | 
 | selective for Brd4 over BPTF |  | Cc1cnc(Nc2ccc(OCCN3CCCC3)cc2)nc1Nc1cccc(S(=O)(=O)NC(C)(C)C)c1 [TG-101348, reference compound] | 

SMILES | BPTF 19F NMR (5FW-BPTF bromodomain) | selectivity between BPTF and Brd4 by PrOF NMR (in words) (5FW-BPTF bromodomain) | Brd4 19F NMR [1] | also measured
CCn1c(-c2nonc2N)nc2c(C#CCN)ncc(OCCCN)c21 [GSK561866B] | ++ (a resonance from the protein in question has been perturbed by 2 standard deviations in either chemical shift or linewidth) | highly selective for BPTF | - | 
CCc1ccc(Oc2nccc(-c3c(-c4ccc(F)cc4)ncn3C3CCNCC3)n2)cc1 [SB-242719] | + (a resonance from the protein in question has been perturbed by 1 standard deviation in either chemical shift or linewidth) |  | +++ | Ki (Brd4 [3]): 13000 ± 3000 nM; fold weaker affinity (Brd4 [3]; relative to SB-284851-BT (1)): 40 fold
Oc1ccc(-c2nc(-c3ccncc3)c(-c3ccc(F)cc3)[nH]2)cc1 [SB-202190, reference compound] |  | selective for Brd4 over BPTF |  | 
